Experiment: Stability test of sample solutions under exposure to fluorescent light (HPLC peak area)
Assay type: physicochemical
Conditions: acetonitrile sample solution (HαS 0.26 mg/mL, compound 5 0.49 mg/mL), room temperature, 24 hours under fluorescent light
Protocol: (HPLC Analysis Conditions)
Column: TSK-GEL 80TS (φ4.6 mm×150 mm) (Tosoh, Japan); column temperature: 40° C.; flow rate: 1.0 mL/min; measurement wavelength: 200 to 400 nm; mobile phase: Liquid A acetonitrile, Liquid B 0.1% Na2S2O3 aqueous solution (Liquid A: 40%, Liquid B: 60%); and measurement mode: isocratic mode.
HαS (27.6 mg) and the compound 5 (50.4 mg) were diluted to 100 mL with anhydrous acetonitrile (HPLC grade) to prepare 0.26 mg/mL and 0.49 mg/mL sample solutions. The sample solutions, dispensed in 50 mL aliquots, were allowed to stand at room temperature for 24 hours under exposure to fluorescent light. Quantitative analysis was performed under the above HPLC analysis conditions to measure peak area values of the HαS and the diene iron complex compound (compound 5).

Row | Compound | peak area value (content) relative to initial level after light exposure
1 | C/C=C/C=C/C=C\CC/C=C/C(=O)NCC(C)(C)O [HαS, (2E,6Z,8E,10E)-N-(2-hydroxy-2-methylpropyl)dodeca-2,6,8,10-tetraenamide] | approximately 10%
2 | tricarbonyl[(8,9,10,11-η)-(2E,6Z,8E,10E)-N-(2-hydroxy-2-methylpropyl)dodeca-2,6,8,10-tetraenamide]iron [compound 5] | approximately 80%

Reference: patent US8871962B2, “Method for producing sanshool” (Tsumura & Co., priority 2010, dated 2014)
